Counter-ions that a name gives are not always drawn.
Legend:
M. mulieris = experiment: Minimum inhibitory concentration (MIC) against M. mulieris, two-fold dilutions in 96-well plates; type: cell-based, Mobiluncus mulieris; settings: FIG. 2A
Procedure: The minimum inhibitory concentration (MIC) for each solution was determined against M. mulieris using two-fold dilutions and flat-bottom 96-well plates. […] Methods for Antimicrobial Susceptibility Testing of Anaerobic Bacteria; Approved Standard—6th Edition).

G. vaginalis = experiment: Minimum inhibitory concentration (MIC) against G. vaginalis, two-fold dilutions in 96-well plates; type: cell-based; settings: Gardnerella vaginalis; after 48 hours; tested 0.0625 to 16 mg/mL; FIG. 1A; read-out: concentration showing significant inhibition of growth of G. vaginalis (MIC)
Procedure: Formulations of creatinine hydrochloride were prepared in different concentrations to evaluate the effect on the inhibition of growth of G. vaginalis. Creatinine hydrochloride was used in varying concentrations ranging from 0.0625 mg/mL to 16 mg/mL. The minimum inhibitory concentration (MIC) for each solution was determined against G. vaginalis using two-fold dilutions and flat-bottom 96-well plates.

SMILES: CN1CC(=O)NC1=N [creatinine hydrochloride]
- MIC (M. mulieris; Mobiluncus mulieris, after 48 hours, tested 0.0625 to 16 mg/mL, read-out: concentration that inhibited growth of M. mulieris (MIC)): 4000 µg/mL
- concentration that still inhibited growth of M. mulieris (M. mulieris; after 72 hours): 8 mg/mL
- MIC (G. vaginalis): 4000 µg/mL

From US12109195B2, “Compositions and methods for treatment of vaginal infections” (priority 2020, dated 2024)
